Experimental data published in paper PMC4900588, “Amphipathic β^2,2-Amino Acid Derivatives Suppress Infectivity and Disrupt the Intracellular Replication Cycle of Chlamydia pneumoniae” (PLoS ONE, 2016).
Several values for one entry are separate records, joined by “and”; a condition that tells them apart may be missing. Identical values can stand only once. Like-named read-outs stand apart in the source and are kept apart here.

How the values were obtained:
C. pneumoniae EBs = experiment: Elementary body infectivity assay; assay type: cell-based; conditions: Chlamydia pneumoniae; EBs treated with 5 μM for 1 h before inoculation of HL cells; read-out: inhibition of EB infectivity
Protocol: C. pneumoniae EBs were suspended into the HL cell growth medium supplemented with cycloheximide at 400 000 inclusion forming units (IFU)/ml and exposed to 5 μM of the derivatives A1—A6 for 1 h at 4°C. Immediately afterwards, aliquots of the EBs suspensions were used to infect HL cell monolayers as described above (MOI 0.2), resulting in typically 40–60 inclusions per eye field in nontreated control infections.

C. pneumoniae [1] = experiment: Infectious progeny assay; assay type: cell-based, Chlamydia pneumoniae; conditions: for inclusion vacuole counts in the second passage of infection vs untreated control: 5 μM; for suppression of infectious progeny production: administered at 6 hpi or later (data not shown)
Protocol: To measure the effects of the β^2,2-amino acid derivatives on production of new infectious progeny by C. pneumoniae, HL cells were infected with C. pneumoniae as described above in the presence of the derivatives (at a concentration of 5 μM). At 72 hpi, medium was removed from the wells and 200 μl fresh medium was added. The cells were scraped off and then further lysed by vortexing with glass beads, and the lysates were used to infect fresh HL cell monolayers. Inclusion counts in the second passage of infection were determined with immunofluorescent staining as described above, and control wells fixed and stained after the first infectious cycle were used as internal controls.

C. pneumoniae strain K7 = experiment: C. pneumoniae inclusion count inhibition in infected HL cells (immunofluorescence); assay type: cell-based, Chlamydia pneumoniae; conditions: for inhibition at 5 µM / reduction in inclusion counts / inhibition against C. pneumoniae: added at 2 hpi, 72 h, 5 μM; for inhibition at 5 µM / IC50 / reduction in inclusion counts / inhibition against C. pneumoniae: strain K7, HL cells; for inhibition at 5 µM: read-out: reduction in inclusion counts / inhibition against C. pneumoniae; for IC50: read-out: IC50 (inclusion counts, dose-response); for concentration that inhibits infectivity and interferes with inclusions: human epithelial HL cells
Protocol: Human epithelial HL cells were grown in a RPMI1640 medium supplemented with 7.5% fetal bovine serum (FBS), 2 mM L-glutamine and 20 μg/ml gentamicin sulfate. A clinical C. pneumoniae isolate Kajaani 7 (K7), originally isolated from a young person suffering from pneumonia was obtained from Professor Pekka Saikku (Department of Medicinal Microbiology, Institute of Diagnostics, University of Oulu, Finland) and a cardiovascular C. pneumoniae isolate CV-6 was obtained from Professor Matthias Maass (Paracelsus Medical University, Salzburg, Austria). The reference strains CWL-029 (VR-1310) and AR-39 (ATCC 53592) were obtained from American Type Culture Collection (ATCC). All strains were propagated in HL cells as previously described. The K7 strain was used in all studies whereas CV-6 and the ATCC reference strains were used to confirm our initial compound screening data.
(§1) For all experiments applying immunofluorescence, HL cells were seeded in 24-well plates with coverslips at density of 4 x 10^5 cells/well and incubated overnight before infection. The cells were inoculated with C. pneumoniae at multiplicity of infection (MOI) 0.2 in the cell growth media supplemented with 1 μg/ml cycloheximide to enhance chlamydial growth. The inoculated cultures were centrifuged at 550 g at 4°C for 1 h and incubated at 37°C for 1 h. Inocula were removed, fresh medium was added into wells and the plates were incubated for 70 h. Afterwards the cultures were fixed with methanol and the coverslips were stained with Pathfinder Chlamydia cell culture confirmation system (Bio-Rad) based on a genus-specific anti-LPS antibody to visualize the host cells and chlamydial inclusions. Detailed protocols for the infection and staining can be found in [29]. Unless otherwise stated in the text, the derivatives were added into the culture medium at 2 hours post infection (hpi), i.e., at the time when inocula were removed. […] DMSO concentration was adjusted to 0.1% in all experiments.
All experiments were carried out as four replicates in minimum and the inclusion counts were determined as mean ± SEM of 4 eye fields per coverslip. For statistical analysis GraphPad Prism software v. 5.0 and Student’s t-test (p < 0.05) were applied.

HL cells = experiment: Resazurin cell viability assay; assay type: cell-based, human; conditions: 5 μM, 72 h
Protocol: (§2) HL cells were seeded into 96-well plates at density […] and incubated overnight before starting the exposure. The β^2,2-amino acid derivatives were added at concentrations of 5 μM either in the presence or absence of 1 μg/ml cycloheximide in a final volume of 200 μl and the plates were incubated for 72 h. The resazurin assay was performed as described in Karlsson et al..

C. pneumoniae [2] = experiment: Delayed administration assay; assay type: cell-based, Chlamydia pneumoniae; conditions: for reduction in inclusion vacuole counts: 3 μM, added at 6 hpi or later; for inhibition at 3 µM: Chlamydia pneumoniae, added at 2 hpi, read-out: inhibition of inclusion vacuole counts
Protocol: as §1
HL cells were infected as described above and treated with derivatives at concentrations of 3 μM in order to cause inhibition of infection above 50%. The treatment of the infected cells was delayed by 4, 10 and 22 h and inclusions counts were subsequently performed as described above.

[3] = system: C. pneumoniae inclusions in HL cells; assay type: cell-based, Chlamydia pneumoniae; conditions: 2.5 μM added at 2 hpi
Protocol: HL cells were seeded in 6-well plates at 2 x 10^6 cells per well and cultured overnight. The cell monolayers were infected with C. pneumoniae (MOI 1) and treated with 2.5 μM of derivative A2 by adding it to the culture medium at 2 hpi based on findings in the dose-response assay. Untreated and uninfected HL control cells were incubated concurrently. The cells were pre-fixed at 24, 48 and 72 hpi with Karnovsky's fixative at 4°C, overnight. The samples were further processed for TEM as described in [30].

[4] = Resazurin cell viability assay; assay type: cell-based, human; conditions: human, HL cells
Protocol: as §2

NCCNC(=O)C(CN)(Cc1ccc(C(F)(F)F)cc1)Cc1ccc(C(F)(F)F)cc1 [A1]
inhibition at 5 µM (C. pneumoniae EBs): ≤ 50%
inclusion vacuole counts in the second passage of infection vs untreated control (C. pneumoniae [1]): significantly lower
suppression of infectious progeny production (C. pneumoniae [1]): neither A1 nor A2 suppressed C. pneumoniae infectious progeny production
inhibition at 5 µM (C. pneumoniae strain K7; Chlamydia pneumoniae): 95.6%
IC50 (C. pneumoniae strain K7; Chlamydia pneumoniae): 2 µM and 1.4 µg/mL
concentration that inhibits infectivity and interferes with inclusions (C. pneumoniae strain K7): below 5 μM
effect on host HL cell viability (in words) (HL cells): no substantial effect on host HL cell viability
reduction in inclusion vacuole counts (C. pneumoniae [2]): 10–20%
inhibition at 3 µM (C. pneumoniae [2]): ~70%

NCCNC(=O)C(CN)(Cc1ccc2ccccc2c1)Cc1ccc2ccccc2c1 [A2]
inhibition at 5 µM (C. pneumoniae EBs): ≤ 50%
inclusion vacuole counts in the second passage of infection vs untreated control (C. pneumoniae [1]): significantly lower
suppression of infectious progeny production (C. pneumoniae [1]): neither A1 nor A2 suppressed C. pneumoniae infectious progeny production
inhibition at 5 µM (C. pneumoniae strain K7; Chlamydia pneumoniae): 100%
IC50 (C. pneumoniae strain K7; Chlamydia pneumoniae): 2 µM and 1.3 µg/mL
concentration that inhibits infectivity and interferes with inclusions (C. pneumoniae strain K7): below 5 μM
effect on host HL cell viability (in words) (HL cells): no substantial effect on host HL cell viability
reduction in inclusion vacuole counts (C. pneumoniae [2]): 20–30%
inhibition at 3 µM (C. pneumoniae [2]): ~80%
TEM finding in infected HL cells ([3]; 24 hpi): affected inclusion vacuoles were visible
TEM finding in infected HL cells ([3]; 48 hpi): smaller inclusions, which only contained fragments of RBs and EBs
TEM finding in infected HL cells ([3]; 72 hpi): no RBs or EBs were present

CC(C)(C)c1ccc(CC(CN)(Cc2ccc(C(C)(C)C)cc2)C(=O)NCCN)cc1 [A3]
inhibition at 5 µM (C. pneumoniae EBs): 77%
reduction in inclusion counts / inhibition against C. pneumoniae (C. pneumoniae strain K7): full inhibition
viability at 72 h, 5 µM [4]: 30.6%

CN(C)CCOC(=O)C(CN)(Cc1ccc(C(F)(F)F)cc1)Cc1ccc(C(F)(F)F)cc1 [A4]
inhibition at 5 µM (C. pneumoniae EBs): 20%
inhibition at 5 µM (C. pneumoniae strain K7; Chlamydia pneumoniae): 23.2%
effect on host HL cell viability (in words) (HL cells): no cytotoxic effects

CN(C)CCOC(=O)C(CN)(Cc1ccc2ccccc2c1)Cc1ccc2ccccc2c1 [A5]
inhibition at 5 µM (C. pneumoniae EBs): 66%
inhibition at 5 µM (C. pneumoniae strain K7; Chlamydia pneumoniae): 89.8%
reduction of HL cell viability (HL cells): 35.6%

CN(C)CCOC(=O)C(CN)(Cc1ccc(C(C)(C)C)cc1)Cc1ccc(C(C)(C)C)cc1 [A6]
inhibition at 5 µM (C. pneumoniae EBs): 90%
reduction in inclusion counts / inhibition against C. pneumoniae (C. pneumoniae strain K7): full inhibition
viability at 72 h, 5 µM [4]: 18.4%

CO[C@H]1/C=C/O[C@@]2(C)Oc3c(C)c(O)c4c(O)c(c(/C=N/N5CCN(C)CC5)c(O)c4c3C2=O)NC(=O)/C(C)=C\C=C\[C@H](C)[C@H](O)[C@@H](C)[C@@H](O)[C@@H](C)[C@H](OC(C)=O)[C@@H]1C [Rifampicin, reference compound]
inhibition at 0.012 µM (C. pneumoniae strain K7; Chlamydia pneumoniae, K7, positive control, 12 nM, read-out: inhibition in C. pneumoniae inclusion counts): 95 to 98%

CC[C@H]1OC(=O)[C@H](C)[C@@H](O[C@H]2C[C@@](C)(OC)[C@@H](O)[C@H](C)O2)[C@H](C)[C@@H](O[C@@H]2O[C@H](C)C[C@H](N(C)C)[C@H]2O)[C@](C)(O)C[C@@H](C)CN(C)[C@H](C)[C@@H](O)[C@]1(C)O [azithromycin, reference compound]
inhibition at 0.02 µM (C. pneumoniae strain K7; Chlamydia pneumoniae, K7, positive control, 20 nM, read-out: inhibition in C. pneumoniae inclusion counts): 95 to 98%
